Reference: US20240382600A1, “BIFUNCTIONAL DEGRADERS COMPRISING A TEAD BINDER” (Novartis AG, priority 2021, published 2024)

How the values were obtained:
[1] = system: YAP-dependent transcription in SF268-MCAT_Luc_dox-i-shYAPLevy (Clone 13) cells; assay: YAP reporter gene activity assay (MCAT-Luc), SF268; assay type: cell-based; conditions: SF268 MCAT_Luc, 24 hrs
[2] = system: MKN-45/Ubc-luc cells (unspecific inhibition of luciferase expression or activity); assay: Reporter gene assay specificity control (Ubc-Luc), MKN-45; assay type: cell-based; conditions: MKN-45/Ubc-luc specificity control, 24 hrs
How it was run: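 MKN-45 cells stably carrying a ubiquitin C promoter–firefly luciferase construct, treated the day after seeding with eleven 2-fold compound dilutions (0.1% DMSO final) for 24 hrs at 37° C. Luminescence read 5 min after Steady Glo addition; cell-free background subtracted, as a control for nonspecific luciferase inhibition.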

[3] = system: YAP-dependent transcription in NCI-H2052 Tet-On shYAP_2371 pLenti6 MCAT_Luc cells; assay: YAP reporter gene activity assay (MCAT-Luc), NCI-H2052; assay type: cell-based; conditions: 24 hrs
[4] = biological target: TEAD1-GFP in HEK293A cells (Homo sapiens (Human), UniProt P28347); assay: TEAD1 protein abundance flow cytometry assay in HEK293A; assay type: cell-based; conditions: HEK293A TEAD1-GFP-CHYSEL-mCherry sensor cells, 24 h, GFP signal by flow cytometry
How it was run: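 HEK293A stably expressing bicistronic TEAD1-GFP-CHYSEL-mCherry treated 24 h at 37° C with 10-point 3-fold series from 10 μM (0.1% DMSO), duplicate. Median GFP of 2,500 single cells by flow cytometry, normalized to parental HEK293A (0%) and DMSO (100%); DC50 from concentration-response curves.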

MKN-45/Ubc-luc cells = assay: Proliferation assay (resazurin/AlamarBlue), MKN-45; assay type: cell-based; conditions: MKN-45, 72 hours
How it was run: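 MKN-45 cells carrying constitutive Ubc-driven luciferase reporter, treated the day after seeding with eleven 2-fold dilutions (0.1% DMSO) for 72 h at 37 °C. Viability by resazurin, referenced to day-0 plate; GI50 from % growth (100 none, 0 stasis, −100 kill) and residual viability at top concentration.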

[5] = system: SF268-MCAT_Luc_dox-i-shYAPLevy (Clone 13) cells; assay: Proliferation assay (resazurin/AlamarBlue), SF268; assay type: cell-based; conditions: SF268, 72 hours
[6] = system: NCI-H2052 Tet-On shYAP_2371 pLenti6 MCAT_Luc cells; assay: Proliferation assay (resazurin/AlamarBlue), NCI-H2052; assay type: cell-based; conditions: NCI-H2052, 72 hours
[7] = biological target: Avi-humanTEAD4^217-434 / Cy5 labeled humanYAP^60-100 (Homo sapiens (Human), UniProt Q15561); assay: In-vitro biochemical TR-FRET assay (TEAD4/YAP); assay type: binding; conditions: 1 h at room temperature
Sequence of Avi-humanTEAD4^217-434 / Cy5 labeled humanYAP^60-100 (Q15561 217-434): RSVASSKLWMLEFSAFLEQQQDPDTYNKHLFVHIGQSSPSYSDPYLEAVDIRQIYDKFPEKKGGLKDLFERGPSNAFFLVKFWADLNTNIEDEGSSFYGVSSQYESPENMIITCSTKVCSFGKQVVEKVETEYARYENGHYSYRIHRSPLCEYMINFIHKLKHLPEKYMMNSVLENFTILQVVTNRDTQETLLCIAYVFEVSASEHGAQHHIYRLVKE

Sequence of TEAD1-GFP in HEK293A cells (P28347 whole entry): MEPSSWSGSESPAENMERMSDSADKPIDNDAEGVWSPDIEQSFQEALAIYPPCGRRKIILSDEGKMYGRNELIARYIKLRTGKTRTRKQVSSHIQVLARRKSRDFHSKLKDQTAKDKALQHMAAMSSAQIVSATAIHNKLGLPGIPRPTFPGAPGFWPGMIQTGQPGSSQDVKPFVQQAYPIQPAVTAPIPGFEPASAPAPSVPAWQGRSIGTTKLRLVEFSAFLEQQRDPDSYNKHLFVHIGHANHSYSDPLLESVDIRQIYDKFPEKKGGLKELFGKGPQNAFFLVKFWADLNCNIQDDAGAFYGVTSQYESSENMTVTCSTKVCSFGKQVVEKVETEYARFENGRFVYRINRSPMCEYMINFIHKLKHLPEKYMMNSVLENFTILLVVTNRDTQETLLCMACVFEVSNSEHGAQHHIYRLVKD

| Molecule | IC50 ([1]; Homo sapiens, SF-268) | IC50 ([2]; Homo sapiens) | IC50 ([3]; Homo sapiens) | DC50 [4] | GI50 (MKN-45/Ubc-luc cells; Homo sapiens) | GI50 ([6]; Homo sapiens) | IC50 [7] | IC50 [1] | IC50 [2] | IC50 [3] | GI50 (MKN-45/Ubc-luc cells) | GI50 [6] | GI50 ([5]; Homo sapiens, SF-268) | GI50 [5] |
| --- | --- | --- | --- | --- | --- | --- | --- | --- | --- | --- | --- | --- | --- | --- |
| N-(4-(1-((1S,4r)-4-((((2S,3S,4S)-4-(6-carbamoyl-2-fluoro-3-methoxyphenyl)-5-chloro-6-fluoro-3-methyl-2-phenyl-2,3-dihydrobenzofuran-2-yl)methyl)amino)cyclohexane-1-carbonyl)piperidin-4-yl)butyl)-3-(2,4-dioxotetrahydropyrimidin-1(2H)-yl)-4-methoxybenzamide [Example 18] | – | – | – | 2 nM | – | – | 3.9 nM | 1.3 nM | > 2000 nM | 9.9 nM | > 2000 nM | 27 nM | – | 60 nM |
| COc1ccc(C(N)=O)c(-c2c(Cl)c(F)cc3c2[C@H](C)[C@@](CN[C@H]2CC[C@H](C(=O)N4CCC(OC5CCN(C(=O)COc6ccc(N7CCC(=O)NC7=O)c(C)c6)CC5)CC4)CC2)(c2ccccc2)O3)c1F (atropisomer, axis not shown) [Example 14, 2-((2S,3S,4S)-5-chloro-2-((((1r,4S)-4-(4-((1-(2-(4-(2,4-dioxotetrahydropyrimidin-1(2H)-yl)-3-methylphenoxy)acetyl)piperidin-4-yl)oxy)piperidine-1-carbonyl)cyclohexyl)amino)methyl)-6-fluoro-3-methyl-2-phenyl-2,3-dihydrobenzofuran-4-yl)-3-fluoro-4-methoxybenzamide] | 0.63 nM | > 2000 nM | 3.1 nM | 3 nM | > 2000 nM | 11 nM | 1.4 nM | – | – | – | – | – | 35 nM | – |
| COc1ccc(C(=O)N2CCC3(CCN(CCNC(=O)[C@H]4CC[C@H](NC[C@]5(c6ccccc6)Oc6cc(F)c(Cl)c(-c7c(C(N)=O)ccc(OC)c7F)c6[C@@H]5C)CC4)CC3)CC2)cc1N1CCC(=O)NC1=O (atropisomer, axis not shown) [Example 5, 2-((2S,3S,4S)-5-chloro-2-((((1r,4S)-4-((2-(9-(3-(2,4-dioxotetrahydropyrimidin-1(2H)-yl)-4-methoxybenzoyl)-3,9-diazaspiro[5.5]undecan-3-yl)ethyl)carbamoyl)cyclohexyl)amino)methyl)-6-fluoro-3-methyl-2-phenyl-2,3-dihydrobenzofuran-4-yl)-3-fluoro-4-methoxybenzamide] | 2.5 nM | > 20000 nM | 160 nM | 35 nM | > 20000 nM | 360 nM | < 1 nM | – | – | – | – | – | 89 nM | – |
| COc1ccc(C(=O)N2CCC(C3CCN(CCNC(=O)[C@H]4CC[C@H](NC[C@]5(c6ccccc6)Oc6cc(F)c(Cl)c(-c7c(C(N)=O)ccc(OC)c7F)c6[C@@H]5C)CC4)CC3)CC2)cc1N1CCC(=O)NC1=O (atropisomer, axis not shown) [Example 11, 2-((2S,3S,4S)-5-chloro-2-((((1r,4S)-4-((2-(1′-(3-(2,4-dioxotetrahydropyrimidin-1(2H)-yl)-4-methoxybenzoyl)-[4,4′-bipiperidin]-1-yl)ethyl)carbamoyl)cyclohexyl)amino)methyl)-6-fluoro-3-methyl-2-phenyl-2,3-dihydrobenzofuran-4-yl)-3-fluoro-4-methoxybenzamide] | 1.4 nM | > 20000 nM | 91 nM | 11 nM | > 20000 nM | 280 nM | < 1 nM | – | – | – | – | – | 51 nM | – |

Second part, led by results:

| IC50 ([1]; Homo sapiens, SF-268) | IC50 ([2]; Homo sapiens) | IC50 ([3]; Homo sapiens) | DC50 [4] | GI50 (MKN-45/Ubc-luc cells; Homo sapiens) | GI50 ([6]; Homo sapiens) | IC50 [7] | IC50 [1] | IC50 [2] | IC50 [3] | GI50 (MKN-45/Ubc-luc cells) | GI50 [6] | Molecule | GI50 ([5]; Homo sapiens, SF-268) | GI50 [5] |
| --- | --- | --- | --- | --- | --- | --- | --- | --- | --- | --- | --- | --- | --- | --- |
| 11 nM | > 2000 nM | 79 nM | 27 nM | > 2000 nM | 270 nM | 2.3 nM | – | – | – | – | – | COc1ccc(C(N)=O)c(-c2c(Cl)c(F)cc3c2[C@H](C)[C@@](CN[C@H]2CC[C@H](C(=O)N4CCC(OC5CCN(C(=O)CCC(=O)N[C@H](C(=O)N6C[C@H](O)C[C@H]6C(=O)N[C@@H](C)c6ccc(-c7scnc7C)cc6)C(C)(C)C)CC5)CC4)CC2)(c2ccccc2)O3)c1F (atropisomer, axis not shown) [Example 41, (2S,4R)-1-((S)-2-(4-(4-((1-((1S,4r)-4-((((2S,3S,4S)-4-(6-carbamoyl-2-fluoro-3-methoxyphenyl)-5-chloro-6-fluoro-3-methyl-2-phenyl-2,3-dihydrobenzofuran-2-yl)methyl)amino)cyclohexane-1-carbonyl)piperidin-4-yl)oxy)piperidin-1-yl)-4-oxobutanamido)-3,3-dimethylbutanoyl)-4-hydroxy-N-((S)-1-(4-(4-methylthiazol-5-yl)phenyl)ethyl)pyrrolidine-2-carboxamide] | 310 nM | – |
| 0.22 nM | > 20000 nM | 3.9 nM | 0.4 nM | > 20000 nM | 19 nM | 1.4 nM | – | – | – | – | – | COc1ccc(C(N)=O)c(-c2c(Cl)c(F)cc3c2[C@H](C)[C@@](CN[C@H]2CC[C@H](C(=O)N4CCC(OC5CCN(C(=O)COc6ccc(C)c(N7CCC(=O)NC7=O)c6)CC5)CC4)CC2)(c2ccccc2)O3)c1F (atropisomer, axis not shown) [Example 20, 2-((2S,3S,4S)-5-chloro-2-((((1r,4S)-4-(4-((1-(2-(3-(2,4-dioxotetrahydropyrimidin-1(2H)-yl)-4-methylphenoxy)acetyl)piperidin-4-yl)oxy)piperidine-1-carbonyl)cyclohexyl)amino)methyl)-6-fluoro-3-methyl-2-phenyl-2,3-dihydrobenzofuran-4-yl)-3-fluoro-4-methoxybenzamide] | 18 nM | – |
| 1.9 nM | > 2000 nM | 630 nM | 2800 nM | > 2000 nM | 670 nM | 2.3 nM | – | – | – | – | – | CN[C@@H](C)C(=O)N[C@H](C(=O)N1C[C@@H](NCC(=O)N[C@H]2CC[C@H](NC(=O)[C@H]3CC[C@H](NC[C@]4(c5ccccc5)Oc5cc(F)c(Cl)c(-c6c(C(N)=O)ccc(OC)c6F)c5[C@@H]4C)CC3)CC2)C[C@H]1C(=O)N[C@@H]1CCCc2ccccc21)C1CCCCC1 (atropisomer, axis not shown) [Example 44, (2S,4S)-4-((2-(((1S,4S)-4-((1S,4S)-4-((((2S,3S,4S)-4-(6-carbamoyl-2-fluoro-3-methoxyphenyl)-5-chloro-6-fluoro-3-methyl-2-phenyl-2,3-dihydrobenzofuran-2-yl)methyl)amino)cyclohexane-1-carboxamido)cyclohexyl)amino)-2-oxoethyl)amino)-1-((S)-2-cyclohexyl-2-((S)-2-(methylamino)propanamido)acetyl)-N-((R)-1,2,3,4-tetrahydronaphthalen-1-yl)pyrrolidine-2-carboxamide] | 1300 nM | – |
| 0.18 nM | > 2000 nM | 2 nM | 0.4 nM | > 2000 nM | 9.5 nM | 1 nM | – | – | – | – | – | COc1ccc(C(N)=O)c(-c2c(Cl)c(F)cc3c2[C@H](C)[C@@](CN[C@H]2CC[C@H](C(=O)N4CCN(CC5CCN(C(=O)COc6ccc(C)c(N7CCC(=O)NC7=O)c6)CC5)CC4)CC2)(c2ccccc2)O3)c1F (atropisomer, axis not shown) [Example 22, 2-((2S,3S,4S)-5-chloro-2-((((1r,4S)-4-(4-((1-(2-(3-(2,4-dioxotetrahydropyrimidin-1(2H)-yl)-4-methylphenoxy)acetyl)piperidin-4-yl)methyl)piperazine-1-carbonyl)cyclohexyl)amino)methyl)-6-fluoro-3-methyl-2-phenyl-2,3-dihydrobenzofuran-4-yl)-3-fluoro-4-methoxybenzamide] | 9.5 nM | – |
| 0.3 nM | > 2000 nM | 1.4 nM | 0.3 nM | > 2000 nM | 4.3 nM | 1.6 nM | – | – | – | – | – | COc1ccc(C(N)=O)c(-c2c(Cl)c(F)cc3c2[C@H](C)[C@@](CN[C@H]2CC[C@H](C(=O)N4CCC(CC5CCN(C(=O)COc6ccc(C)c(N7CCC(=O)NC7=O)c6)CC5)CC4)CC2)(c2ccccc2)O3)c1F (atropisomer, axis not shown) [Example 21, 2-((2S,3S,4S)-5-chloro-2-((((1r,4S)-4-(4-((1-(2-(3-(2,4-dioxotetrahydropyrimidin-1(2H)-yl)-4-methylphenoxy)acetyl)piperidin-4-yl)methyl)piperidine-1-carbonyl)cyclohexyl)amino)methyl)-6-fluoro-3-methyl-2-phenyl-2,3-dihydrobenzofuran-4-yl)-3-fluoro-4-methoxybenzamide] | 9.4 nM | – |
